Read-outs that look alike come from different tables or passages of the source.
How the values were obtained:
Format in all cases: biochemical
K-Ras G12C = K-Ras G12C (Homo sapiens (Human), UniProt P01116+P62937, G12C); test: Ras-Raf (BRAF RBD) disruption / FRET / MOA assay, KRAS G12C; conditions: KRAS G12C, Ras-Raf disruption/FRET/MOA assay
In short: (§1)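 Ras:RAF disruption was scored as a fall in TR-FRET ratio relative to DMSO. Compound ranged in 3-fold steps over 10 points from 30 μM final; incubation ran 3 h at 25° C, detection antibodies a further 1.5 h. Reported as IC50.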

K-Ras G13C = K-Ras G13C (Homo sapiens (Human), UniProt P01116+P62937, G13C); test: Ras-Raf (BRAF RBD) disruption / FRET / MOA assay, KRAS G13C; conditions: KRAS G13C, Ras-Raf disruption/FRET/MOA assay
In short: as §1

KRAS G12V = KRAS G12V (Homo sapiens (Human), UniProt P01116+P62937, G12V); test: Ras-Raf (BRAF RBD) disruption / FRET / MOA assay, KRAS G12V
In short: as §1

KRAS G13D = KRAS G13D (Homo sapiens (Human), UniProt P01116+P62937, G13D); test: Ras-Raf (BRAF RBD) disruption / FRET / MOA assay, KRAS G13D
In short: as §1

KRAS Q61H = KRAS Q61H (Homo sapiens (Human), UniProt P01116+P62937, Q61H); test: Ras-Raf (BRAF RBD) disruption / FRET / MOA assay, KRAS Q61H; conditions: Ras-Raf disruption/FRET/MOA assay; class symbols; read-out: KRAS Q61H FRET data IC50
In short: (§2)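 TR-FRET disruption of nucleotide-loaded Ras binding to BRAF RBD via compound-driven ternary complex with cyclophilin A. Compound as 10-point 3-fold series from 30 μM final, 3 h at 25° C, then anti-His Eu-W1024 (10 nM) and anti-GST allophycocyanin (50 nM) for 1.5 h. IC50 from decreased FRET ratio versus DMSO.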

NRAS G12C = NRAS G12C (Homo sapiens (Human), UniProt P01111+P62937, G12C); test: Ras-Raf (BRAF RBD) disruption / FRET / MOA assay, NRAS G12C
In short: as §1

NRAS Q61R = NRAS Q61R (Homo sapiens (Human), UniProt P01111+P62937, Q61R); test: Ras-Raf (BRAF RBD) disruption / FRET / MOA assay, NRAS Q61R; conditions: NRAS Q61R; Ras-Raf disruption/FRET/MOA assay; read-out: IC50* NRAS Q61R FRET data
In short: as §2

NRAS Q61K = NRAS Q61K (Homo sapiens (Human), UniProt P01111+P62937, Q61K); test: Ras-Raf (BRAF RBD) disruption / FRET / MOA assay, NRAS Q61K; conditions: NRAS Q61K; Ras-Raf disruption/FRET/MOA assay; read-out: IC50* NRAS Q61K FRET data
In short: as §2

NRAS WT = NRAS WT (Homo sapiens (Human), UniProt P01111+P62937); test: Ras-Raf (BRAF RBD) disruption / FRET / MOA assay, NRAS WT; conditions: read-out: IC50* NRAS WT FRET data
In short: as §2

[1] = read-out: IC50* KRAS G12C FRET data
[2] = read-out: IC50* KRAS G13C FRET data
[3] = read-out: IC50* KRAS G12V FRET data
[4] = read-out: IC50* KRAS G13D FRET data
[5] = read-out: IC50* NRAS G12C FRET data

NRAS Q61R, sequence (P01111 whole entry Q61R): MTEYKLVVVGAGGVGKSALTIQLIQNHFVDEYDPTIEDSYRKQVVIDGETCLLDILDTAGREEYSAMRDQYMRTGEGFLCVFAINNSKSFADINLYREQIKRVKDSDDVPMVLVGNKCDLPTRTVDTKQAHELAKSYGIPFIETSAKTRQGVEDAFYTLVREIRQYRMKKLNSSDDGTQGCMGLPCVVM
NRAS Q61R, sequence (P62937 whole entry): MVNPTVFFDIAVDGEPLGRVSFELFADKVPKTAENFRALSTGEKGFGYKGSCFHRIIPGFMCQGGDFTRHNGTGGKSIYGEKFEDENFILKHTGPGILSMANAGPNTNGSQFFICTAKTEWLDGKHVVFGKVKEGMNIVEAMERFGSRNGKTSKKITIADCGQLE
KRAS Q61H, sequence (P01116-2 other isoform, or with tags, fused parts or gaps Q61H): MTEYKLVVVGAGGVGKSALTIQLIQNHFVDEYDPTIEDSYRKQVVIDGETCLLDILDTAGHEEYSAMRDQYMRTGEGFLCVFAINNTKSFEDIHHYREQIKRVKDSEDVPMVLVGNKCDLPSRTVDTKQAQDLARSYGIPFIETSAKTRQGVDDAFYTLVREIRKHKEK
KRAS Q61H, sequence (P62937 whole entry): as the sequence (P62937 whole entry) above
NRAS WT, sequence (P01111 whole entry): as the sequence (P01111 whole entry Q61R) above, with R61Q counted along it
NRAS WT, sequence (P62937 whole entry): as the sequence (P62937 whole entry) above
K-Ras G13C, sequence (P01116-2 other isoform, or with tags, fused parts or gaps G13C): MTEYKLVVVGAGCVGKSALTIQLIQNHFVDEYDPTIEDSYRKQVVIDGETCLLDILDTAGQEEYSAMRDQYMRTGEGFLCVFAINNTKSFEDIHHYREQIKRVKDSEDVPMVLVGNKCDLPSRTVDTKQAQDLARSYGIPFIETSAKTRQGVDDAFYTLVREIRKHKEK
K-Ras G13C, sequence (P62937 whole entry): as the sequence (P62937 whole entry) above
NRAS Q61K, sequence (P01111 whole entry Q61K): as the sequence (P01111 whole entry Q61R) above, with R61K counted along it
NRAS Q61K, sequence (P62937 whole entry): as the sequence (P62937 whole entry) above
KRAS G13D, sequence (P01116-2 other isoform, or with tags, fused parts or gaps G13D): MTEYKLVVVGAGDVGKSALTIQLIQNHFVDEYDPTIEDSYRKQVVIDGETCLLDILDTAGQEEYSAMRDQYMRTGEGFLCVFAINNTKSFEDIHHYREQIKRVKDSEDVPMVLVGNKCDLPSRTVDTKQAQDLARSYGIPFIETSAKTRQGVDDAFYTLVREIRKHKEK
KRAS G13D, sequence (P62937 whole entry): as the sequence (P62937 whole entry) above
K-Ras G12C, sequence (P01116-2 other isoform, or with tags, fused parts or gaps G12C): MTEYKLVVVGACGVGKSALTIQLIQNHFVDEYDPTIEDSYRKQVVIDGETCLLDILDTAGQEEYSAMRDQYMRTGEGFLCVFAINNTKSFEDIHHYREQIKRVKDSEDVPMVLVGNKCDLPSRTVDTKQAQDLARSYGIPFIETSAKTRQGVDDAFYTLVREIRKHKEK
K-Ras G12C, sequence (P62937 whole entry): as the sequence (P62937 whole entry) above
KRAS G12V, sequence (P01116-2 other isoform, or with tags, fused parts or gaps G12V): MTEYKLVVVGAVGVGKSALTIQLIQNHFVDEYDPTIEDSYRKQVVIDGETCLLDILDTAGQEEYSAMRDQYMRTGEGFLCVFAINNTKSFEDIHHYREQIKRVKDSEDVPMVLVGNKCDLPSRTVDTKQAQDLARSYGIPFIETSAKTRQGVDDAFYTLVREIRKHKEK
KRAS G12V, sequence (P62937 whole entry): as the sequence (P62937 whole entry) above
NRAS G12C, sequence (P01111 whole entry G12C): as the sequence (P01111 whole entry Q61R) above, with G12C, R61Q counted along it
NRAS G12C, sequence (P62937 whole entry): as the sequence (P62937 whole entry) above

SMILES	IC50 (K-Ras G12C; [1])	IC50 (K-Ras G13C; [2])	IC50 (KRAS G12V; [3])	IC50 (KRAS G13D; [4])	IC50 (KRAS Q61H)	IC50 (NRAS G12C; [5])	IC50 (NRAS Q61R)	IC50 (NRAS Q61K)	IC50 (NRAS WT)	IC50 (K-Ras G12C; IC50* KRAS G12C FRET data)	IC50 (K-Ras G13C; IC50* KRAS G13C FRET data)	IC50 (KRAS G12V; IC50* KRAS G12V FRET data)	IC50 (KRAS G13D; IC50* KRAS G13D FRET data)	IC50 (NRAS G12C; IC50* NRAS G12C FRET data)
C=CC(=O)N1CC[C@H](C(=O)N(C)[C@H](C(=O)N[C@H]2Cc3cc(CF)cc(c3)-c3ccc4c(c3)c(c(-c3cccnc3[C@H](C)OC)n4CC)CC(C)(C)COC(=O)[C@@H]3CCCN(N3)C2=O)C(C)C)C1 (atropisomer, axis not shown) [Example A503]	10 to 100 nM	100 to 1000 nM	1000 to 10000 nM	1000 to 10000 nM	100 to 1000 nM	10 to 100 nM	1000 to 10000 nM	1000 to 10000 nM	1000 to 10000 nM					
C=CC(=O)N1CC[C@H](C(=O)N(C)[C@H](C(=O)N[C@H]2Cc3cccc(c3)-c3ccc4c(c3)c(c(-c3cc(CN(C)C)cnc3[C@H](C)OC)n4CC)CC(C)(C)COC(=O)[C@@H]3CCCN(N3)C2=O)C(C)C)C1 (atropisomer, axis not shown) [Example A522]	100 to 1000 nM	1000 to 10000 nM	1000 to 10000 nM	1000 to 10000 nM	100 to 1000 nM	100 to 1000 nM	1000 to 10000 nM	1000 to 10000 nM	1000 to 10000 nM					
C=CC(=O)N1CCO[C@H]2CN(C(=O)N(C)[C@H](C(=O)N[C@H]3Cc4cc(C(F)F)cc(n4)-c4ccc5c(c4)c(c(-c4cccnc4[C@H](C)OC)n5CC(F)(F)F)CC(C)(C)COC(=O)[C@@H]4CCCN(N4)C3=O)C(C)C)C[C@H]21 (atropisomer, axis not shown) [Example A540]					100 to 1000 nM		1000 to 10000 nM	1000 to 10000 nM	1000 to 10000 nM	100 to 1000 nM	10 to 100 nM	1000 to 10000 nM	1000 to 10000 nM	100 to 1000 nM
C=CC(=O)N1CCO[C@@H]2CN(C(=O)N(C)[C@H](C(=O)N[C@H]3Cc4nc(cs4)-c4ccc5c(c4)c(c(-c4cccnc4[C@H](C)OC)n5CC)CC(C)(C)COC(=O)[C@@H]4CCCN(N4)C3=O)C(C)C)C[C@H]21 (atropisomer, axis not shown) [Example A543]	< 10 nM	100 to 1000 nM	100 to 1000 nM	100 to 1000 nM	10 to 100 nM	< 10 nM	100 to 1000 nM	10 to 100 nM	100 to 1000 nM					
C=CC(=O)N1CCO[C@H]2CN(C(=O)N(C)[C@H](C(=O)N[C@H]3Cc4nc(cs4)-c4ccc5c(c4)c(c(-c4cccnc4[C@H](C)OC)n5CC)CC(C)(C)COC(=O)[C@@H]4CCCN(N4)C3=O)C(C)C)C[C@@H]21 (atropisomer, axis not shown) [Example A544]	< 10 nM	100 to 1000 nM	100 to 1000 nM	100 to 1000 nM	10 to 100 nM	< 10 nM	100 to 1000 nM	10 to 100 nM	100 to 1000 nM					
C=CC(=O)N1CCOC2(CCN(C(=O)N(C)[C@H](C(=O)N[C@H]3Cc4nsc(n4)-c4ccc5c(c4)c(c(-c4cccnc4[C@H](C)OC)n5CC)CC(C)(C)COC(=O)[C@@H]4CCCN(N4)C3=O)C(C)C)CC2)C1 (atropisomer, axis not shown) [Example A545]	10 to 100 nM	10 to 100 nM	100 to 1000 nM	100 to 1000 nM	10 to 100 nM	10 to 100 nM	100 to 1000 nM	10 to 100 nM	100 to 1000 nM					
C=CC(=O)N1CC[C@@H]2[C@H]1CN2C(=O)N(C)[C@H](C(=O)N[C@H]1Cc2nc(cs2)-c2ccc3c(c2)c(c(-c2cccnc2[C@H](C)OC)n3CC)CC(C)(C)COC(=O)[C@@H]2CCCN(N2)C1=O)C(C)C (atropisomer, axis not shown) [Example A546]	100 to 1000 nM	10 to 100 nM	100 to 1000 nM	1000 to 10000 nM	100 to 1000 nM	100 to 1000 nM	100 to 1000 nM	100 to 1000 nM	100 to 1000 nM					
CCn1c(-c2cccnc2[C@H](C)OC)c2c3cc(ccc31)-c1cccc(c1)C[C@H](NC(=O)[C@H](C(C)C)N1CC[C@@]3(CCN(C(=O)C#C[C@H]4COCCN4C)C3)C1=O)C(=O)N1CCC[C@H](N1)C(=O)OCC(C)(C)C2 (atropisomer, axis not shown) [Example A551]	< 10 nM	100 to 1000 nM	1000 to 10000 nM	1000 to 10000 nM	100 to 1000 nM	< 10 nM	1000 to 10000 nM	1000 to 10000 nM	1000 to 10000 nM					

— patent US11566007B2, “Ras inhibitors” (Revolution Medicines, Inc., priority 2019, dated 2023)
